The record followed here is US20230250070A1, “DIHYDROOXAZOLE AND THIOUREA DERIVATIVES MODULATING THE NLRP3 INFLAMMASOME PATHWAY” (AC IMMUNE SA, priority 2020, published 2023).

pIC50: −log10 of the molar value.

Experiment [1] has as its system NLRP3 inflammasome pathway. The experiment in a line: NLRP3 inflammasome pathway activation assay, MSU stimulation, IL-1β release (AlphaLISA). In kind it is cell-based. Conditions: PMA-differentiated, LPS-primed human monocyte-like cells, MSU 150 µg/ml for 3 h. As to the method:
(§1) The following assays were used to determine the inhibitory activity of test compounds on the NLRP3 inflammasome pathway using common stimuli Nigericin (Invivogen) or monosodium urate crystals (MSU) (Invivogen).
(§2) Human monocyte-like cells were cultured in RPMI-1640 Glutamax medium supplemented with 10% heat inactivated FCS and 50 U/ml penicillin-streptomycin (Life Technologies).
(§3) Human monocyte-like cells were seeded at 75000 per well in a 96-well plate and were differentiated overnight into macrophages with 10 ng/ml PMA (Phorbol Myristate Acetate). The following day, medium containing 10 ng/ml LPS (Lipopolysaccharide) were added. After 3 hours of LPS priming, concentrations of test compound in the range from 100 µM to 6 nM were added 30 min prior to NLRP3 inflammasome pathway stimulation with Nigericin 3.75 µM or MSU 150 µg/ml for 3 h.
(§4) For IL-1β quantification, supernatants were analyzed using AlphaLISA kits according to the manufacturer’s instructions (Perkin Elmer AlphaLISA AL220F). Briefly, in a 384-well OptiPlate™ microplate, 5 µl of sample was mixed, with 20 µl of AlphaLISA Anti-Analyte Acceptor beads (10 µg/mL final) and Biotinylated Antibody Anti-Analyte (1 nM final). Then, incubated 60 minutes at RT, then 25 µL of 2X SA-Donor beads (40 µg/mL final) were added and incubated 30 minutes at RT in the dark. Reading was done using an EnVision-Alpha Reader (PerkinElmer).
(§5) IC50(concentration corresponding to 50% inhibition) were determined using GraphPad Prism 8.
(In general: In Alpha technology, singlet oxygen from a donor bead excites a nearby acceptor bead.)

Experiment [2] concerns NLRP3 inflammasome pathway. The experiment in a line: NLRP3 inflammasome pathway activation assay, Nigericin stimulation, IL-1β release (AlphaLISA). The class given is cell-based. The conditions noted are these: PMA-differentiated, LPS-primed human monocyte-like cells, Nigericin 3.75 µM for 3 h. On the procedure:
as §1, §2, §3, §4, §5

As usually defined, the pIC50 is the negative decadic logarithm of the IC50, by convention in mol/L. “2-((1,2,3,5,6,7-hexahydro-s-indacen-4-yl)amino)-5-(5-isopropylisoxazol-3-yl)-4,5-dihydrooxazole-5-carboxylate [Example 28]”: the pIC50 in experiment [1] is over 6.00; in experiment [2], 5.00 to 6.00.
Consider `CCOC(=O)C1(c2ccccc2)CN=C(Nc2c3c(cc4c2CCC4)CCC3)O1` (racemic) [Example 1, Ethyl 2-((1,2,3,5,6,7-hexahydro-s-indacen-4-yl)amino)-5-phenyl-4,5-dihydrooxazole-5-carboxylate], for which the negative logarithm of the IC50 (pIC50) was over 6.00 in experiment [1] and over 6.00 in experiment [2] (Homo sapiens, 3 h).
Turning to `CCOC(=O)C1(c2ccccn2)CN=C(Nc2c3c(cc4c2CCC4)CCC3)O1` (racemic) [Example 8, Ethyl 2-((1,2,3,5,6,7-hexahydro-s-indacen-4-yl)amino)-5-(pyridin-2-yl)-4,5-dihydrooxazole-5-carboxylate], the pIC50 in experiment [1] was over 6.00; in experiment [2] (Homo sapiens, 3 h), over 6.00.
Turning to `CCOC(=O)C1(c2ccc(Cl)cc2)CN=C(Nc2c3c(cc4c2CCC4)CCC3)O1` (racemic) [Example 10, Ethyl 5-(4-chlorophenyl)-2-((1,2,3,5,6,7-hexahydro-s-indacene-4-yl)amino)-4,5-dihydrooxazole-5-carboxylate], the negative logarithm of the IC50 (pIC50) in experiment [1] is 5.00 to 6.00; in experiment [2] (Homo sapiens, 3 h) it was 5.00 to 6.00.
Take `CCOC(=O)C(O)(CNC(=S)Nc1c2c(cc3c1CCC3)CCC2)c1cc(C(C)(C)O)on1` (racemic) [Example 14, Ethyl 3-(3-(1,2,3,5,6,7-hexahydro-s-indacen-4-yl)thioureido)-2-hydroxy-2-(5-(2-hydroxypropan-2-yl)isoxazol-3-yl)propanoate]: the negative-log IC50 (pIC50) in experiment [1] and in experiment [2] was over 6.00 in each case.
For `CCOC(=O)C1(c2ccccc2)CN=C(Nc2c3c(c(F)c4c2CCC4)CCC3)O1` (racemic) [Example 30, ethyl 2-((8-fluoro-1,2,3,5,6,7-hexahydro-s-indacen-4-yl)amino)-5-phenyl-4,5-dihydrooxazole-5-carboxylate], the negative-log IC50 (pIC50) was over 6.00 in experiment [1] and 5.00 to 6.00 in experiment [2] (Homo sapiens, 3 h).
For `CCOC(=O)C1(c2ncccn2)CN=C(Nc2c3c(cc4c2CCC4)CCC3)O1` (racemic) [Example 50, ethyl 2-((1,2,3,5,6,7-hexahydro-s-indacen-4-yl)amino)-5-(pyrimidin-2-yl)-4,5-dihydrooxazole-5-carboxylate], the pIC50 in experiment [1] is 5.00 to 6.00; in experiment [2] (Homo sapiens, 3 h), over 6.00.
For `CCOC(=O)C1(c2cc(C(C)(C)O)on2)OC(Nc2c3c(cc4c2CCC4)CCC3)=NC1C` (racemic) [Example 52, ethyl 2-((1,2,3,5,6,7-hexahydro-s-indacen-4-yl)amino)-5-(5-(2-hydroxypropan-2-yl)isoxazol-3-yl)-4-methyl-4,5-dihydrooxazole-5-carboxylate] the same measures were 5.00 to 6.00 and over 6.00.
For the compound `CC(C)(C)OC(=O)C1(c2ccno2)CN=C(Nc2c3c(cc4c2CCC4)CCC3)O1` (racemic) [Example 90, tert-butyl 2-((1,2,3,5,6,7-hexahydro-s-indacen-4-yl)amino)-5-(isoxazol-5-yl)-4,5-dihydrooxazole-5-carboxylate], the pIC50 in experiment [1] is 5.00 to 6.00; in experiment [2] (Homo sapiens, 3 h), over 6.00.
As to `CCOC(=O)C1(c2nccn2C)CN=C(Nc2c3c(cc4c2CCC4)CCC3)O1` (single isomer, unassigned) [Example 5, Ethyl 2-((1,2,3,5,6,7-hexahydro-s-indacen-4-yl)amino)-5-(1-methyl-1H-imidazol-2-yl)-4,5-dihydrooxazole-5-carboxylate], the negative logarithm of the IC50 (pIC50) in experiment [1] and in experiment [2] was over 6.00 in each case.
As for `CCOC(=O)C1(c2ccc(OC)nc2)CN=C(Nc2c3c(cc4c2CCC4)CCC3)O1` (single isomer, unassigned) [Example 7, Ethyl 2-((1,2,3,5,6,7-hexahydro-s-indacen-4-yl)amino)-5-(6-methoxypyridin-3-yl)-4,5-dihydrooxazole-5-carboxylate], the negative logarithm of the IC50 (pIC50) in experiment [1] and in experiment [2] was over 6.00 in each case.
Take `CCOC(=O)C1(c2ccccn2)CN=C(Nc2c3c(cc4c2CCC4)CCC3)O1` (single isomer, unassigned) [Example 9, Ethyl 2-((1,2,3,5,6,7-hexahydro-s-indacen-4-yl)amino)-5-(pyridin-2-yl)-4,5-dihydrooxazole-5-carboxylate]: the negative logarithm of the IC50 (pIC50) in experiment [1] and in experiment [2] was over 6.00 in each case.
As for `CCOC(=O)C1(c2ccc(Cl)cc2)CN=C(Nc2c3c(cc4c2CCC4)CCC3)O1` (single isomer, unassigned) [Example 10a, Ethyl 5-(4-chlorophenyl)-2-((1,2,3,5,6,7-hexahydro-s-indacene-4-yl)amino)-4,5-dihydrooxazole-5-carboxylate], the pIC50 was over 6.00 in experiment [1] and 4.52 to 5.00 in experiment [2].
On to `CCOC(=O)C1(c2cccnc2)CN=C(Nc2c3c(cc4c2CCC4)CCC3)O1` (single isomer, unassigned) [Example 11, Ethyl 2-((1,2,3,5,6,7-hexahydro-s-indacen-4-yl)amino)-5-(pyridin-3-yl)-4,5-dihydrooxazole-5-carboxylate], for which the pIC50 in experiment [1] and in experiment [2] was over 6.00 each time.
In the case of `CCOC(=O)C1(c2cccc(Cl)c2)CN=C(Nc2c3c(cc4c2CCC4)CCC3)O1` (single isomer, unassigned) [Example 13a, Ethyl 5-(3-chlorophenyl)-2-((1,2,3,5,6,7-hexahydro-s-indacen-4-yl)amino)-4,5-dihydrooxazole-5-carboxylate], the pIC50 in experiment [1] and in experiment [2] was over 6.00 throughout.
For `COC(=O)C1(c2cc(C(C)(C)O)on2)CN=C(Nc2c3c(cc4c2CCC4)CCC3)O1` (single isomer, unassigned) [Example 72, methyl 2-((1,2,3,5,6,7-hexahydro-s-indacen-4-yl)amino)-5-(5-(2-hydroxypropan-2-yl)isoxazol-3-yl)-4,5-dihydrooxazole-5-carboxylate], the negative logarithm of the IC50 (pIC50) in experiment [1] was over 6.00.
The compound `O=C(O)C1(c2ccccn2)CN=C(Nc2c3c(cc4c2CCC4)CCC3)O1` (stereo not drawn) [Example 25, 2-((1,2,3,5,6,7-hexahydro-s-indacen-4-yl)amino)-5-(pyridin-2-yl)-4,5-dihydrooxazole-5-carboxylic acid] showed a pIC50 in experiment [1] of 5.00 to 6.00.
Still for that read-out and setting: then `O=C(O)C1(c2cccnc2)CN=C(Nc2c3c(cc4c2CCC4)CCC3)O1` (stereo not drawn) [Example 26, 2-((1,2,3,5,6,7-hexahydro-s-indacen-4-yl)amino)-5-(pyridin-3-yl)-4,5-dihydrooxazole-5-carboxylic acid], with 5.00 to 6.00; and `CCOC(=O)C1(c2cc(C(C)(C)O)on2)OC(Nc2c3c(cc4c2CCC4)CCC3)=NC1CC` (stereo not drawn) [Example 51, ethyl 4-ethyl-2-((1,2,3,5,6,7-hexahydro-s-indacen-4-yl)amino)-5-(5-(2-hydroxypropan-2-yl)isoxazol-3-yl)-4,5-dihydrooxazole-5-carboxylate], with 5.00 to 6.00.
As to `CC(C)OC(=O)C1(c2ccon2)CN=C(Nc2c3c(cc4c2CCC4)CCC3)O1` (stereo not drawn) [Example 56, Isopropyl 2-((1,2,3,5,6,7-hexahydro-s-indacen-4-vl)amino)-5-(isoxazol-3-yl)-4,5-dihvdrooxazole-5-carboxylate], in experiment [1], the pIC50 is over 6.00.
Turning to `O=C(OC1CCCC1)C1(c2ccon2)CN=C(Nc2c3c(cc4c2CCC4)CCC3)O1` (stereo not drawn) [Example 57, Cyclopentyl 2-((1,2,3,5,6,7-hexahvdro-s-indacen-4-vl)amino)-5-(isoxazol-3-vl)-4,5-dihvdrooxazole-5-carboxylate], the negative-log IC50 (pIC50) in experiment [1] is over 6.00.
